Patent US3988462A (priority 1972, dated 1976)
In brackets after ≈: the same amount, converted by molar mass. Read-outs that look alike come from different tables or passages of the source.

Tests used:
[1] = tested on: influenza virus-A2 /Kumamoto; assay type: in vivo, mice
[2] = tested on: Staphylococcus aureus 209P; experiment: microbe, parasite or virus in culture; assay type: cell-based; settings: read-out: Minimum inhibitory concentration
[3] = tested on: Trychophyton rubrum; experiment: microbe, parasite or virus in culture; assay type: cell-based; settings: read-out: Minimum inhibitory concentration
[4] = tested on: Mycoplasma pneumoniae; experiment: microbe, parasite or virus in culture; assay type: cell-based; settings: read-out: Minimum inhibitory concentration
[5] = tested on: Brettanomyces anomalus IFO 0648; experiment: Antimicrobial activity (Table III); assay type: cell-based; settings: IFO0648, Malt Agar (M.A.), read-out: Minimum inhibitory concentration
Protocol: (§1) A solution containing Antibiotic TS-885 was prepared as follows to determine the biological activity of Antibiotic TS-885. A 100 mg amount of 3-(5,7-dimethyl-2-hydroxy-4-oxo-6,8-decadienyl)-glutarimide (Antibiotic TS-885) was dissolved in a mixture of 0.6 ml of dimethyl-sulfoxide and 0.02 ml of polyoxyethylene sorbitane monolaurate (EO : 20). A 1.0 ml amount of a stirred saline solution (0.01 M phosphate buffered saline, pH 7.2) was added to the mixture to form a uniform solution which was followed by the addition of 48 ml of the saline solution. By this procedure a stock solution of Antibiotic TS-885 having a concentration of 2 mg/ml was prepared. The stock solution was diluted with the buffer solution for the following tests.
(§2) The antimicrobial spectra were observed by the pulp disc diffusion method and the agar streak method, and the results are shown in Tables II and III.

[6] = tested on: Candida alibicans; experiment: Antimicrobial activity (Table III); assay type: cell-based; settings: Sabouraud's agar (S.A.), read-out: Minimum inhibitory concentration
Protocol: as §1, §2

[7] = tested on: Cryptococcus albidus IFO 0378; experiment: Antimicrobial activity (Table III); assay type: cell-based; settings: Naganishia albida, IFO0378; Malt Agar (M.A.); read-out: Minimum inhibitory concentration
Protocol: as §1, §2

[8] = tested on: Hansenula anomala IFO 0118; experiment: Antimicrobial activity (Table III); assay type: cell-based; settings: IFO0118, Malt Agar (M.A.), read-out: Minimum inhibitory concentration
Protocol: as §1, §2

[9] = tested on: Phodotorula glutinis IFO 0754; experiment: Antimicrobial activity (Table III); assay type: cell-based; settings: Malt Agar (M.A.); read-out: Minimum inhibitory concentration
Protocol: as §1, §2

[10] = tested on: R. rubra IFO 0001; experiment: Antimicrobial activity (Table III); assay type: cell-based; settings: Malt Agar (M.A.); read-out: Minimum inhibitory concentration
Protocol: as §1, §2

[11] = tested on: Saccharomyces fragilis IAM 7160; experiment: Antimicrobial activity (Table III); assay type: cell-based; settings: IAM7160, Malt Agar (M.A.), read-out: Minimum inhibitory concentration
Protocol: as §1, §2

[12] = tested on: Saccharomyces rosei AHU 3174; experiment: Antimicrobial activity (Table III); assay type: cell-based; settings: Torulaspora delbrueckii, AHU3174; Malt Agar (M.A.); read-out: Minimum inhibitory concentration
Protocol: as §1, §2

[13] = tested on: Saccharomyces sake HUT 7119; experiment: Antimicrobial activity (Table III); assay type: cell-based; settings: HUT7119, Malt Agar (M.A.), read-out: Minimum inhibitory concentration
Protocol: as §1, §2

[14] = tested on: Torula rubra var alpa; experiment: Antimicrobial activity (Table III); assay type: cell-based; settings: Malt Agar (M.A.), read-out: Minimum inhibitory concentration
Protocol: as §1, §2

[15] = tested on: Candida utilis IFO 0396; experiment: microbe, parasite or virus in culture; assay type: cell-based; settings: Williopsis jadinii, IFO0396; read-out: Minimum inhibitory concentration
[16] = tested on: Candida tropicalis; experiment: microbe, parasite or virus in culture; assay type: cell-based; settings: read-out: Minimum inhibitory concentration
[17] = tested on: Candida parapsiiosis IFO 0708; experiment: microbe, parasite or virus in culture; assay type: cell-based; settings: IFO0708, read-out: Minimum inhibitory concentration
[18] = Cytotoxicity, cylinder method; assay type: cell-based; settings: read-out: Minimum Inhibitory Concentration, cylinder method
Protocol: as §1
(§3) The cytotoxicity of Antibiotic TS-885 against various tissue culture cells was observed by the following two methods:
a. a cylinder method (on a thin seed plate)
a. A 10 ml amount of a cell suspension (3 × 10^5 cells/ml) was seeded in a petri dish having a diameter of 90 mm. The plates were incubated in a CO2 incubator at 37° C.
(§4) After 24 hours, the medium was removed and the plates were overlaid with 5 ml of an agar medium and one cylinder was placed on the medium. A 0.25 ml amount of a test sample was placed in the cylinder. After maintaining the plates for 2 hours at room temperature to diffuse Antibiotic TS-885 into the agar, the plate was incubated in the CO2 incubator at 37° C. After 48 hours, the cytotoxic effect of Antibiotic TS-885 was determined by the size of the diameter of the growth inhibitory zone around the cylinder. (2) In the tube dilution method, 2 × 10^5 cells were inoculated into a small test tube, and the tubes were incubated at 37° C for 24 hours. Solutions containing various concentrations of Antibiotic TS-885 were added to tubes of the cells and reincubated at […]. After 48 hours, the degenerated cells were microscopically observed.

[19] = Cytotoxicity, tube dilution method; assay type: cell-based; settings: read-out: Minimum Inhibitory Concentration, tube dilution method
Protocol: as §1, §3
b. a tube dilution method
as §4

[20] = tested on: poliovirus; assay type: cell-based
[21] = tested on: poliovirus; experiment: microbe, parasite or virus in culture; assay type: cell-based
[22] = tested on: Vesicular stomatitis virus; experiment: microbe, parasite or virus in culture; assay type: cell-based
[23] = tested on: mouse ascites tumor cells (Sarcoma 180); experiment: Antitumor effect in mice; assay type: in vivo; settings: intraperitoneally, once daily for six days
Protocol: 1,000,000 mouse ascites tumor cells (Sarcoma 180) were transplanted intraperitoneally into mice. 24 Hours after the mice were treated with the transplanted tumor cells, the mice were injected with various doses of the antibiotic once daily for six days intraperitoneally. […] It is that the life span of the antibiotic treated mice was prolonged.

[24] = Toxicity in mice, repeated intravenous administration; assay type: in vivo; settings: 20 mg/kg per day intravenous, once daily for 10 days (total 200 mg/kg)
[25] = Solubility; assay type: physicochemical
[26] = tested on: bacteria; assay type: cell-based
[27] = tested on: mycoplasma; assay type: cell-based
[28] = tested on: yeasts; assay type: cell-based
[29] = Serum concentration after intravenous injection in mice; settings: mouse
[30] = cited from earlier work
[31] = chicken, chick embryo fibroblast cells, MEM medium
[32] = human, hela s3 cells, YLE medium
[33] = monkey, monkey kidney cells, MEM medium
[34] = Enterovirus C, read-out: Diameter of plaque free zone
[35] = Vesicular stomatitis virus, in Gallus gallus, read-out: Diameter of plaque free zone

NC12CC3CC(CC(C3)C1)C2 [Amantadine, 1,Adamantylamine, reference compound]
Survival / treated × 100 % ([1]; 20 mg/kg, survival day 7): 100%
Survival / treated × 100 % ([1]; 20 mg/kg, survival day 10): 60%
Survival / treated × 100 % ([1]; 20 mg/kg, survival day 13): 10%
Survival / treated × 100 % ([1]; 20 mg/kg, survival day 15): 0%
Survival / treated × 100 % ([1]; 20 mg/kg, survival day 20): 0%

CC=CC(C)=CC(C)C(=O)CC(O)CC1CC(=O)NC(=O)C1 (stereo not shown) [Antibiotic TS-885, 3-(5,7-dimethyl-2-hydroxy-4-oxo-6,8-decadienyl)-glutarimide]
MIC [2]: > 1000 µg/mL
MIC [3]: 1000 µg/mL (≈ 3250 µM)
MIC [4]: > 1000 µg/mL
MIC [5]: > 100 µg/mL
MIC [6]: > 100 µg/mL
MIC [7]: 4 µg/mL (≈ 13 µM)
MIC [8]: 20 µg/mL (≈ 65.1 µM)
MIC [9]: 100 µg/mL (≈ 325 µM)
MIC [10]: 20 µg/mL (≈ 65.1 µM)
MIC [11]: 20 µg/mL (≈ 65.1 µM)
MIC [12]: 100 µg/mL (≈ 325 µM)
MIC [13]: 4 µg/mL (≈ 13 µM)
MIC [14]: 4 µg/mL (≈ 13 µM)
MIC [15]: 100 µg/mL (≈ 325 µM)
MIC [16]: 100 µg/mL (≈ 325 µM)
MIC [17]: > 100 µg/mL
MCC at 48 h [18, 31]: 0.5 µg/mL
MCC at 48 h [18, 32]: 0.2 µg/mL
MCC at 48 h [18, 33]: 0.2 µg/mL
MCC at 48 h ([18]; mouse, l-cells, YLE medium): 0.25 µg/mL
MCC at 48 h [19, 31]: 1 µg/mL
MCC at 48 h [19, 32]: 0.4 µg/mL
MCC at 48 h ([19]; human, p3 hr-1 cells, MEM medium): 0.4 µg/mL
MCC at 48 h [19, 33]: 0.4 µg/mL
MCC at 48 h ([19]; mouse, l-cells, YLE medium): 0.5 µg/mL
Antiviral effect ([20]; 0.5 mcg/ml): Toxic
Antiviral effect ([20]; 1 mcg/ml): Toxic
Antiviral effect ([20]; 10 mcg/ml): Toxic
Antiviral effect ([21]; 12.5 mcg/ml): toxic
Antiviral effect ([21]; 25 mcg/ml): toxic
zone of inhibition at 0.5 µg/mL [21, 34]: 15 mm
zone of inhibition at 1 µg/mL [21, 34]: 19.4 mm
zone of inhibition at 5 µg/mL [21, 34]: 25 mm
zone of inhibition at 6.25 µg/mL [21, 34]: 28.4 mm
zone of inhibition at 12.5 µg/mL [21, 34]: 29.2 mm
zone of inhibition at 25 µg/mL [21, 34]: 36 mm
Antiviral effect ([22]; 20 mcg/ml): toxic
Antiviral effect ([22]; 62.5 mcg/ml): toxic
Antiviral effect ([22]; 100 mcg/ml): toxic
Antiviral effect ([22]; 125 mcg/ml): toxic
Antiviral effect ([22]; 250 mcg/ml): toxic
zone of inhibition at 0.3 µg/mL [22, 35]: 15.4 mm
zone of inhibition at 0.6 µg/mL [22, 35]: 17.4 mm
zone of inhibition at 1.25 µg/mL [22, 35]: 18.1 mm
zone of inhibition at 2.5 µg/mL [22, 35]: 18.9 mm
zone of inhibition at 5 µg/mL [22, 35]: 19.6 mm
zone of inhibition at 10 µg/mL [22, 35]: 22.9 mm
zone of inhibition at 20 µg/mL [22, 35]: 26.2 mm
zone of inhibition at 62.5 µg/mL [22, 35]: 28.8 mm
zone of inhibition at 100 µg/mL [22, 35]: 31.7 mm
zone of inhibition at 125 µg/mL [22, 35]: 33.2 mm
zone of inhibition at 250 µg/mL [22, 35]: 42 mm
Survival / treated × 100 % ([1]; 7 mg/kg intraperitoneally, survival day 7): 100%
Survival / treated × 100 % ([1]; 7 mg/kg intraperitoneally, survival day 10): 60%
Survival / treated × 100 % ([1]; 7 mg/kg intraperitoneally, survival day 13): 35%
Survival / treated × 100 % ([1]; 7 mg/kg intraperitoneally, survival day 15): 35%
Survival / treated × 100 % ([1]; 7 mg/kg intraperitoneally, survival day 20): 35%
Survival / treated × 100 % ([1]; 22 mg/kg intraperitoneally, survival day 7): 100%
Survival / treated × 100 % ([1]; 22 mg/kg intraperitoneally, survival day 10): 80%
Survival / treated × 100 % ([1]; 22 mg/kg intraperitoneally, survival day 13): 50%
Survival / treated × 100 % ([1]; 22 mg/kg intraperitoneally, survival day 15): 50%
Survival / treated × 100 % ([1]; 22 mg/kg intraperitoneally, survival day 20): 50%
survival rate ([1]; 22 mg/kg, day not stated (footnote to Table VIII)): 50%
growth of the ascites tumor ([23]; 2.5 mg/mouse per day): inhibits growth of the ascites tumor
life span of the antibiotic treated mice [23]: prolonged
signs of toxicity [24]: No signs of toxicity were observed
Solubility ([25]; acetone, chloroform, benzene, ethylacetate, ethanol, methanol, 1% aqueous sodium hydroxide solution, and pyridine): Soluble
Solubility ([25]; benzene, ethyl acetate, acetone, ethanol 1% NaOH): Soluble
Solubility ([25]; ether): Sparingly soluble
Solubility ([25]; water): water insoluble
Solubility ([25]; water and 5% aqueous hydrochloric acid): Insoluble
antibacterial activity [26]: no antibacterial
antimycoplasmal activity [27]: no antibacterial and antimycoplasmal activity
inhibitory activity against some yeasts [28]: inhibitory activity against some yeasts
concentration at 10 min ([29]; 2.5 mg/kg): 1800 ng/mL
concentration at 0.5 h ([29]; 2.5 mg/kg): 580 ng/mL
concentration at 10 min ([29]; 25 mg/kg): 2900 ng/mL
concentration at 0.5 h ([29]; 25 mg/kg): 2400 ng/mL

C=C/C(C)=C/[C@H](C)C(=O)C[C@H](O)CC1CC(=O)NC(=O)C1 [Streptimidone]
Solubility ([30]; benzene, ethyl acetate, acetone, ethanol): Soluble
Solubility ([30]; water): insoluble
